In one assay the test system is C3H murine model. The settings on record: cited from earlier work.
A further assay concerns human hair follicle. In words: Human hair follicle survival in vitro model. It is filed as cell-based. The method, then:
We had developed and patented a model for a surviving human follicle in vitro (FR 95-08465) making it possible to evaluate the effect of a substance on follicle survival and extension. We used this in vitro model for evaluating the effect of ecdysterone on hair follicle growth and survival. Various concentrations of this substance were tested: 0.01 μg/ml, 0.1 μg/ml, 1 μg/ml and 10 μg/ml.

The next assay concerns hair follicle. In words: Maintenance of hair follicle integrity in vitro (antibody labelling of compartment markers Ki67, keratin K14, transglutaminase, keratin hHa5). The note with it: 14 days of culture, ecdysterone 0.01 μg/ml, compared with reference follicle at D=0. It is filed as cell-based, human. The text has this: In order to characterize more fully the effect of this substance on the hair follicle, we monitored the mitotic activity of the bulb cells and also the various specific differentiation programmes of the outer sheath, of the inner sheath and of the pilar shaft, in the presence or absence of this substance.
The integrity of the follicle compartments after 14 days of culture was thus monitored by means of antibodies that recognize markers specific for each of these compartments: the mitosis marker Ki67, specific for the matrix (S. Commo & B. A. Bernard, 1997, Br. J. Dermatol. 137: 31-38); keratin K14, specific for the outer sheath (ibid.); transglutaminase, specific for the inner sheath (ibid.); and keratin hHa5, specific for the pillar shaft, and in particular the keratogenic zone and the cuticle (L. Langbein et al., 1999, J. Biol. Chem. 274: 19874-19884).

Structures are written as SMILES.

For `CC(C)(O)CC[C@@H](O)[C@](C)(O)[C@H]1CC[C@@]2(O)C3=CC(=O)[C@@H]4C[C@@H](O)[C@@H](O)C[C@]4(C)[C@H]3CC[C@]12C` [ecdysterone], the hair regrowth result in the assay with C3H murine model was “stimulate hair regrowth”. For the same molecule, the “human hair follicle survival in vitro” value in the assay on human hair follicle (ecdysterone 0.01 μg/ml), with human hair follicle (ecdysterone 0.1 μg/ml) and in the assay on human hair follicle (ecdysterone 10 μg/ml) was “significantly increases human hair follicle survival” in each case. For the same molecule, the “expression of follicle compartment markers (Ki67, keratin K14, transglutaminase, keratin hHa5)” value in the assay with hair follicle is listed as “all the markers studied conserve an expression that is comparable to that of the reference follicle at D=0”.
